# Patent US6956043B2, “Pharmaceutical compositions comprising 33-epi-chloro-33-desoxy-ascomycin solid dispersions” (Novartis AG, priority 1995, dated 2005)
# Assays:
# Dissolution rate test = format: physicochemical; conditions: stirring in 0.2 wt % sodium dodecylsulfate in water at 37° C., 10 mg compound Y, after 30 minutes
# Protocol: Forms E, F and G are tested for respective dissolution rates. […] 92% available compound Y is released from Form E. This compares with approximately 5% release after 30 minutes from an equivalent amount of crystalline compound Y.
# [1] = Relative bioavailability study in fasted beagle dogs; format: in vivo; conditions: 1 mg/kg, hard gelatin capsules each containing 10 mg compound X
# Protocol: Hard gelatin capsules each containing 10 mg compound X were administered to 8 dogs in a 4-way latin square design; the dogs were fed 6 hours post administration of the capsules, and blood levels of compound X were determined over 48 hours.
available compound Y released and dissolved (Dissolution rate test),Median peak levels [1],median AUC levels of 0-48 hr [1],Compound
approximately 5%,,,"CC[C@@H]1/C=C(\C)C[C@H](C)C[C@H](OC)[C@H]2O[C@@](O)(C(=O)C(=O)N3CCCC[C@H]3C(=O)O[C@H](/C(C)=C/[C@@H]3CC[C@H](Cl)[C@H](OC)C3)[C@H](C)[C@@H](O)CC1=O)[C@H](C)C[C@@H]2OC [crystalline compound Y, 33-epi-chloro-33-desoxy-ascomycin]"
,140 ng/mL,ca. 1600 ng.h/ml,"CO[C@H]1C[C@@H]2CC[C@@H](C)[C@@](O)(O2)C(=O)C(=O)N2CCCC[C@H]2C(=O)O[C@H]([C@H](C)C[C@@H]2CC[C@@H](OCCO)[C@H](OC)C2)CC(=O)[C@H](C)/C=C(\C)[C@@H](O)[C@@H](OC)C(=O)[C@H](C)C[C@H](C)/C=C/C=C/C=C/1C [Compound X, 40-O-(2-hydroxy)ethyl rapamycin]"
